Patent US20250161307A1, “PYRAZOLOPYRIMIDINES AS MODULATORS OF SPERMINE OXIDASE” (Janssen Pharmaceutica NV, priority 2022, published 2025)
Counter-ions that a name gives are not always drawn.

Experiments:
[1] = molecular target: SMOX (Homo sapiens (Human), UniProt Q9NWM0); assay: Human SMOX assay (HyPerBlu chemiluminescent detection of hydrogen peroxide); format: biochemical; details: 2.5 nM full length hSMOX, spermine substrate, 1 h at room temperature, luminescence read; read-out: SMOx_IC50
Experimental: (§1) The direct detection of hydrogen peroxide produced from the enzymatic reaction of hSMOX or hPAOX in a biochemical assay format was measured using HyPerBlu (Lumigen, Southfield, MI), a small molecule boronate probe that reacts with hydrogen peroxide to generate a chemiluminescent signal. Inhibition of hSMOX or hPAOX enzyme results in a decrease in luminescence.
Test compounds (75 nL) dissolved in DMSO were added to a 384-well white assay plate (Greiner Bio-one, catalog #784075) using an ECHO Acoustic Dispenser (Labcyte). Each compound was serially diluted 3-fold in DMSO to prepare an 11-point dose response curve (columns 1-22). Column 23 and 24 contained 75 nL of 2 mM chlorhexidine and DMSO, respectively, to represent the 100% inhibited versus the neutral control reactions.
Subsequently, 3 μL/well of the substrate solution prepared in assay buffer (10 mM Hepes, pH 7.4, 150 mM NaCl, 1 mM EGTA, 0.01% Pluronic F-127, 0.05% ovalbumin) was dispensed into the assay plate followed by 3 μL/well of full length hSMOX enzyme with an N-terminal His tag from E. coli prepared in assay buffer to initiate the reactions. After a 1 h incubation at room temperature, 6 μL/well of HyPerBlu was added. After a 30 min incubation, the hydrogen peroxide product generated from the hSMOX reactions was measured using an endpoint luminescence read on the PHERAStar FS/FSX microplate reader (BMG LABTECH).
The final assay conditions included 10 mM Hepes, pH 7.4, 150 mM NaCl, 1 mM EGTA, 0.01% Pluronic F-127, 0.05% ovalbumin, 2.5 nM hSMOX, 30 µM spermine, and 1.25% DMSO.
Dose-response curves were fit and compound IC50 values were determined using Genedata Screener (Genedata AG).

[2] = molecular target: hPAOX (Homo sapiens (Human), UniProt Q6QHF9); assay: Human PAOX assay (HyPerBlu chemiluminescent detection of hydrogen peroxide); format: biochemical; details: 60 pM recombinant PAOX, 20 μM N-acetylspermine substrate
Chain of hPAOX (Q6QHF9 whole entry): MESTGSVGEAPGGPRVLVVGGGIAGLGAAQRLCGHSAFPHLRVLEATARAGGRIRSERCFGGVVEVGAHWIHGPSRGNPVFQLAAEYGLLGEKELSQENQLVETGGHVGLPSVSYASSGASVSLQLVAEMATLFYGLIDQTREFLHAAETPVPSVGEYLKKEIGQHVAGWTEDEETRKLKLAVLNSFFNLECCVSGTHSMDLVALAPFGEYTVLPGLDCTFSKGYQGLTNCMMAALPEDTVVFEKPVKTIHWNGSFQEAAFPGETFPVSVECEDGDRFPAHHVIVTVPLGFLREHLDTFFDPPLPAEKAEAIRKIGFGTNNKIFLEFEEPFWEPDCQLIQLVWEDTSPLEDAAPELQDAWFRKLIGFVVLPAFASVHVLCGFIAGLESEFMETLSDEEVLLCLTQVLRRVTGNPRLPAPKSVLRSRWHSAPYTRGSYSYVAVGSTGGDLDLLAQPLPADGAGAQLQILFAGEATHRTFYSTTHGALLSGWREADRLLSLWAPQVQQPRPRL
Experimental: as §1
The hPAOX assay was run and the data analyzed similarly to the hSMOX assay described above, except the reactions contained 60 pM recombinant PAOX with an N-terminal His tag expressed from sf9 insect cells and used 20 μM N-acetylspermine as the substrate.

Chain of SMOX (Q9NWM0 whole entry): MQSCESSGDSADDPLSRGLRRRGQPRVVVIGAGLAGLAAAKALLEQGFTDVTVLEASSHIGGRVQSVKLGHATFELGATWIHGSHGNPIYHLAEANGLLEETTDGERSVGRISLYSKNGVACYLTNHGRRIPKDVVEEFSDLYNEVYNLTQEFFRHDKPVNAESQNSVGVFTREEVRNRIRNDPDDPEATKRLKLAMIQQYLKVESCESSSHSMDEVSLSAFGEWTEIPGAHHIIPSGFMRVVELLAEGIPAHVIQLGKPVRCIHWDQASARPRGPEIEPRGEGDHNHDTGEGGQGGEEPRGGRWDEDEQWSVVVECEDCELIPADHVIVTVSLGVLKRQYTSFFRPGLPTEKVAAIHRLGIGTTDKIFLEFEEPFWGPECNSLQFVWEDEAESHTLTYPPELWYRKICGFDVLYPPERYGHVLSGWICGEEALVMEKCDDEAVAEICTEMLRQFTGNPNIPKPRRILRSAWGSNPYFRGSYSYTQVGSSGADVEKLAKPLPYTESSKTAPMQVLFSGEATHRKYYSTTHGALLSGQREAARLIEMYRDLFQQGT

| Compound | IC50 [1] [µM] | IC50 [2] [µM] |
| --- | --- | --- |
| CN1CC[C@@H](NC(=O)c2cc3nc(-c4ccccc4)cc(N4CCCCC4)n3n2)C1 (single isomer, unassigned) [Example 72, (*R)—N-(1-methylpyrrolidin-3-yl)-5-phenyl-7-(piperidin-1-yl)pyrazolo[1,5-a]pyrimidine-2-carboxamide trifluoroacetate] | 1.01 | 7.13 |
| CN1CC[C@H](NC(=O)c2cc3nc(-c4ccccc4)cc(N4CCCCC4)n3n2)C1 (single isomer, unassigned) [Example 73, (*S)—N-(1-methylpyrrolidin-3-yl)-5-phenyl-7-(piperidin-1-yl)pyrazolo[1,5-a]pyrimidine-2-carboxamide trifluoroacetate] | 1.03 | 4.21 |
| O=C(NC1CN(Cc2ccccc2)C1)c1cc2nc(-c3ccccc3)cc(-c3ccccc3)n2n1 [Example 3, N-(1-Benzylazetidin-3-yl)-5,7-diphenylpyrazolo[1,5-a]pyrimidine-2-carboxamide] | 4.36 | 4.54 |
| CC(C)N1CCC(NC(=O)c2cc3nc(-c4ccccc4)cc(-c4ccccc4)n3n2)C1 (stereo not drawn) [Example 4, N-(1-Isopropylpyrrolidin-3-yl)-5,7-diphenylpyrazolo[1,5-a]pyrimidine-2-carboxamide] | 0.599 | 8.72 |
| CCN1CCC(NC(=O)c2cc3nc(-c4ccccc4)cc(-c4ccccc4)n3n2)C1 (stereo not drawn) [Example 5, N-(1-Ethylpyrrolidin-3-yl)-5,7-diphenylpyrazolo[1,5-a]pyrimidine-2-carboxamide] | 0.367 | 0.914 |
| CN1CCC(NC(=O)c2cc3nc(-c4ccccc4)cc(-c4ccccc4)n3n2)C1 (stereo not drawn) [Example 6, N-(1-Methylpyrrolidin-3-yl)-5,7-diphenylpyrazolo[1,5-a]pyrimidine-2-carboxamide] | 0.23 | 4.95 |
| CN1CC[C@H](NC(=O)c2cc3nc(-c4ccccc4)cc(-c4ccccc4)n3n2)C1 [Example 7, (S)—N-(1-Methylpyrrolidin-3-yl)-5,7-diphenylpyrazolo[1,5-a]pyrimidine-2-carboxamide] | 0.712 | 1.33 |
| CN1CC[C@@H](NC(=O)c2cc3nc(-c4ccccc4)cc(-c4ccccc4)n3n2)C1 [Example 8, (R)—N-(1-Methylpyrrolidin-3-yl)-5,7-diphenylpyrazolo[1,5-a]pyrimidine-2-carboxamide] | 0.393 | 10.7 |
| O=C(NCCCc1ccncc1)c1cc2nc(-c3ccccc3)cc(-c3ccccc3)n2n1 [Example 9, 5,7-Diphenyl-N-(3-(pyridin-4-yl)propyl)pyrazolo[1,5-a]pyrimidine-2-carboxamide] | 0.195 | 1.12 |
| CN(C)CCNC(=O)c1cc2nc(-c3ccccc3)cc(-c3ccccc3)n2n1 [Example 10, N-(2-(Dimethylamino)ethyl)-5,7-diphenylpyrazolo[1,5-a]pyrimidine-2-carboxamide] | 0.617 | 1.38 |
| CN(CCCn1ccnc1)C(=O)c1cc2nc(-c3ccccc3)cc(-c3ccccc3)n2n1 [Example 11, N-(3-(1H-Imidazol-1-yl)propyl)-N-methyl-5,7-diphenylpyrazolo[1,5-a]pyrimidine-2-carboxamide] | 0.567 | 10.3 |
| O=C(NCCCN1CCOCC1)c1cc2nc(-c3ccccc3)cc(-c3ccccc3)n2n1 [Example 13, N-(3-Morpholinopropyl)-5,7-diphenylpyrazolo[1,5-a]pyrimidine-2-carboxamide] | 0.604 | 5.26 |
| CCN1CCC[C@H]1CNC(=O)c1cc2nc(-c3ccccc3)cc(-c3ccccc3)n2n1 [Example 14, (S)—N-((1-Ethylpyrrolidin-2-yl)methyl)-5,7-diphenylpyrazolo[1,5-a]pyrimidine-2-carboxamide] | 0.401 | 2.44 |
| COc1ccc(-c2cc(-c3ccccc3)nc3cc(C(=O)NCCCn4ccnc4)nn23)cc1 [Example 79, N-(3-(1H-imidazol-1-yl)propyl)-7-(4-methoxyphenyl)-5-phenylpyrazolo[1,5-a]pyrimidine-2-carboxamide] | 0.242 |  |
